{"source": "paper PMC7070382", "about": "“Cannabidiol Protects Dopaminergic Neurons in Mesencephalic Cultures against the Complex I Inhibitor Rotenone Via Modulation of Heme Oxygenase Activity and Bilirubin” (Antioxidants, 2020)", "key": {"heme oxygenase (HO) [1]": {"system": "T1, heme oxygenase (HO)", "T1 construct": "gene Hmox1; endogenous enzyme in J774A.1 cell homogenate; isoform not specified", "experiment": "in vitro HO activity (hemin to bilirubin, spectrophotometric) in cell homogenate; Lineweaver-Burk kinetics", "type": "biochemical"}, "heme oxygenase (HO) [2]": {"system": "T1, heme oxygenase (HO)", "experiment": "in vitro HO activity (hemin to bilirubin, spectrophotometric) in cell homogenate", "type": "biochemical"}}, "data": [{"smiles": "C=C(C)[C@@H]1CCC(C)=C[C@H]1c1c(O)cc(CCCCC)cc1O", "note": "[CBD, cannabidiol]", "values": [{"measurement": "IC50", "setting": "heme oxygenase (HO) [1]", "result": 30, "unit": "µM"}]}, {"smiles": "CCCCCc1cc(O)c2c(c1)OC(C)(C)[C@@H]1CCC(C)=C[C@@H]21", "note": "[THC, tetrahydrocannabinol]", "values": [{"measurement": "IC50", "setting": "heme oxygenase (HO) [2]", "result": 56, "unit": "µM"}]}]}
